Assay results taken from ChEMBL document CHEMBL5726857, “Bacterial topoisomerase I inhibitors with antibacterial activity” (2019).

Key:
[1] = DNA Gyrase Supercoiling Inhibition Assay: DNA gyrase supercoiling assays were carried out by mixing the compounds and the enzyme in a similar manner as above (EcTopI relaxation inhibition assay) but in a gyrase assay buffer (35 mM Tris-HCl, 24 mM KCl, 4 mM MgCl2, 2 mM DTT, 1.75 mM ATP, 5 mM spermidine, 0.1 mg/mL BSA, 6.5% glycerol at pH 7.5), followed by the addition of 300 ng of relaxed covalently closed circular DNA (New England Biolabs, Ipswich, Mass., USA) to a final reaction volume of 20 μL. The samples were incubated at 37° C. for 30 minutes before being terminated by the addition of a buffer containing 5% SDS, 0.25% bromophenol blue, and 25% glycerol. The reactions were then analyzed by agarose gel electrophoresis.; parameters: species or system Escherichia coli
[2] = E. coli Topoisomerase I Relaxation Activity Inhibition Assay: The relaxation activity of E. coli topoisomerase I was assayed in a buffer containing 10 mM Tris-HCl, pH 8.0, 50 mM NaCl, 0.1 mg/mL gelatin, and 0.5 mM MgCl2. Half microliter from the appropriate stock solutions of compounds dissolved in the solvent (DMSO) or the solvent alone (control) was mixed with 9.5 μL of the reaction buffer containing 10 ng of enzyme before the addition of 10 μL of reaction buffer containing 200 ng of supercoiled pBAD/Thio plasmid DNA purified by cesium chloride gradient as substrate. Following incubation at 37° C. for 30 min, the reactions were terminated by the addition of 4 μL of a stop buffer (50% glycerol, 50 mM EDTA, and 0.5% (v/v) bromophenol blue), and analyzed by agarose gel electrophoresis. The gels were stained in ethidium bromide and photographed under UV light.

CN1CCN(c2c(F)cc3c(=O)c(C(=O)O)cn4c3c2Oc2cc(N)ccc2-4)CC1
IC50 [1]: 23.4 µM

Nc1ccc2c(c1)Oc1c(N3CCNCC3)c(F)cc3c(=O)c(C(=O)O)cn-2c13
IC50 [1]: 11.7 µM

CCCCCNc1c(F)cc2c(=O)c(C(=O)O)cn3c2c1Oc1cc(N)ccc1-3
IC50 [2]: 15.6 µM

Nc1ccc2c(c1)Oc1c(N3CCCCC3)c(F)cc3c(=O)c(C(=O)O)cn-2c13
IC50 [2]: 3.9 µM
